According to article PMC3112458, “Marked increase in etravirine and saquinavir plasma concentrations during atovaquone/proguanil prophylaxis” (Malaria Journal, 2011):
Where two headings read alike, the source gives them in different places.

What was measured:
[1] = parameters: method as in PMID 17297027; settings: cited from earlier work
[2] = parameters: method as in PMID 20299957; settings: cited from earlier work
[3] = parameters: method as in PMID 17297027; settings: cited from earlier work; remark: listed apart in the source
[4] = 12 hour-PK of anti-retrovirals before and at day 20 of atovaquone/proguanil prophylaxis (HPLC-UV, plasma); assay type: in vivo, human; settings: for Δ AUC0-12h (during prophylaxis AUC minus pre-prophylaxis AUC): plasma, one HIV patient, day 20 of atovaquone/proguanil 250/100 mg daily vs before prophylaxis
Description: In September 2009, the patient planned to spend a two-week holiday in Kenya. […] Standard malaria prophylaxis with atovaquone/proguanil fixed-dose combination (250/100 mg) was prescribed: one tablet daily starting two days before the journey and ending the treatment seven days after return to Italy. A 12 hour-PK of anti-retrovirals was performed before starting prophylaxis with atovaquone/proguanil (Figure 1). The samples were collected in fasting status following this order: the first sample 12 hours after the last dose of anti-retrovirals (pre-dose); the second sample one hour after breakfast and anti-retrovirals consumption; the following samples at 2, 4, 6 and 12 hours post anti-retrovirals' intake. The second PK for the determination of anti-retrovirals' plasma concentrations during atovaquone/proguanil prophylaxis was collected at day 20 on prophylaxis with the same timing plan (Figure 1). In order to avoid any food interference with the PK results, the same diet was administered in both the PK sampling days.

[5] = test system: CYP2C9, 2C19 and P-glycoprotein; parameters: method as in PMID 19725591; settings: cited from earlier work
[6] = test system: CYP3A; parameters: method as in PMID 19725591; settings: cited from earlier work
[7] = test system: P450 system; parameters: method as in PMID 9530286, PMID 9835508; settings: cited from earlier work
[8] = test system: P-glycoprotein and MRP1; parameters: method as in PMID 9530286, PMID 9835508; settings: cited from earlier work

O=C1C(O)=C([C@H]2CC[C@H](c3ccc(Cl)cc3)CC2)C(=O)c2ccccc21 [atovaquone]
protein-bound [1]: > 99% | geometric mean ratio (95% confidence interval) of AUC of atovaquone ([2]; patients on atazanavir/ritonavir compared with healthy volunteers): 0.54 (0.35-0.83) | geometric mean ratio (95% confidence interval) of AUC of atovaquone ([2]; patients on efavirenz compared with healthy volunteers): 0.25 (0.16-0.38) | geometric mean ratio (95% confidence interval) of AUC of atovaquone ([2]; patients on lopinavir/ritonavir compared with healthy volunteers): 0.26 (0.17-0.41) | elimination half-life ([3]; adults): 2 to 3 days | drug excreted unchanged in the faeces [3]: 94%

Cc1cc(C#N)cc(C)c1Oc1nc(Nc2ccc(C#N)cc2)nc(N)c1Br [etravirine]
Δ AUC0-12h (during prophylaxis AUC minus pre-prophylaxis AUC) [4]: +55% | inhibition of CYP2C9, 2C19 and P-glycoprotein [5]: mild inhibitor | induction of CYP3A [6]: inducer

[H]/N=C(\N/C(=N/[H])Nc1ccc(Cl)cc1)NC(C)C [proguanil]
protein-bound [1]: 75% | plasma concentrations lower ([2]; patients on efavirenz, lopinavir/ritonavir or atazanavir/ritonavir compared with healthy volunteers): 38-43% | absolute bioavailability [3]: ≤ 60% | elimination half-life [3]: 0.5 to 0.875 days | time to peak plasma concentrations [3]: 2 to 4 h

Cc1nnc(C(=O)NC(C)(C)c2nc(C(=O)NCc3ccc(F)cc3)c(O)c(=O)n2C)o1 [raltegravir]
Tmax and Cmax in post-prophylaxis versus pre-prophylaxis ([4]; PK profiles, day 20 of atovaquone/proguanil prophylaxis): earlier | Δ AUC0-12h (during prophylaxis AUC minus pre-prophylaxis AUC) [4]: -23%

CC(C)(C)NC(=O)[C@@H]1C[C@@H]2CCCC[C@@H]2CN1C[C@@H](O)[C@H](Cc1ccccc1)NC(=O)[C@H](CC(N)=O)NC(=O)c1ccc2ccccc2n1 [saquinavir]
Δ AUC0-12h (during prophylaxis AUC minus pre-prophylaxis AUC) [4]: +274% | induction or inhibition of P450 system [7]: neither an inducer nor an inhibitor | interaction with P-glycoprotein and MRP1 [8]: substrate and inhibitor
